Residues, ends and D or L forms follow the SMILES beside them. *: point of attachment. Cbz = O=C(OCc1ccccc1)*; CH2F = FC*
Legend:
JNK = experiment: Western blot for JNK activation (p-JNK) in APP-CHO cells; type: cell-based, Chinese Hamster; conditions: 10 μM, 6 hr
Procedure: (§1) APP-CHO cells were treated with 10 μM metal-BTSC complexes for 6 hr and cell lysates examined for activation of PI3K and MAPK signal pathways.
(§2) APP-CHO cells were treated with 10 μM metal-BTSC complexes for 6 hr. Cells were extracted into Phosphosafe (Novagen) lysis buffer and proteins separated by gel-electrophoresis on 12% tris-glycine gels. Proteins were transferred to PVDF membranes and blocked with milk powder for 1 hr. Blots were then probed for total and phosphorylated forms of Akt, JNK and GSK3 using antibodies from Cell Signaling Technologies. After detection with secondary antisera (HRP-labelled), blots were analyzed for signals using chemiluminescence analysis on a GeneGnome image scanner. Activation of PI3K is shown by increased levels of phosphorylated Akt (p-Akt). Activated JNk is shown by increased p-JNK. Increased levels of deactivated GSK3 is shown by increased p-GSK3.

[1] = test system: PI3K (Akt phosphorylation); experiment: Western blot for PI3K activation (Akt phosphorylation) in APP-CHO cells; type: cell-based, Chinese Hamster; conditions: 10 μM, 6 hr
Procedure: as §1, §2

ERK, GSK3 and JNK = experiment: Downstream phosphorylation of ERK, GSK3 and JNK in U87MG-EGFR cells (Western blot); type: cell-based; conditions: 25 μM CuGTSM plus 10 μM PD153035; not completely ablated
Procedure: A study was carried out to determine if kinase pathways modulated by CuGTSM were mediated by activation of EGFR. This was done by treating U87MG-EGFR cells with 25 μM DMSO, CuGTSM, CuGTSM plus 10 μM PD153035 (EGFR inhibitor), or 10 μM PD153035 alone. The activation of ERK, GSK3 and JNK was then determined by Western blot.

EGFR = EGFR phosphorylation (tyr1068) in U87MG-EGFR cells (Western blot); type: cell-based; conditions: added to CuGTSM-treated cells (25 μM CuGTSM)
Procedure: Transfected U87MG-EGFR cells were treated with 25 μM CuGTSM or DMSO as vehicle control for 5 hr and EGFR phosphorylation (tyr1068) determined by Western blot. Antisera to EGFRtyr1068 was routinely used as this is one of the critical tyrosine residues involved in EGFR activation and downstream signaling. It is also routinely reported in the literature on EGFR activation.

G93A-SOD1 mice = conditions: other reported pharmacological treatments (literature); cited from earlier work
Aβ1-40 = experiment: Extracellular Aβ1-40 in conditioned medium of APP-CHO cells (ELISA); type: cell-based, Chinese Hamster; conditions: 6 hr; for effect on Aβ1-40 levels at lower dose: 1 μM
Procedure: […] treatment regimes were used namely a control, 1 μM, 5 μM, 10 μM, 25 μM and 50 μM (FIG. 3). APP-transfected CHO cells were treated with each of the doses of [Cu(GTSM)] for 6 hr in serum-free medium and conditioned medium was then collected and assayed for Aβ1-40 peptide by routine […].
Five treatment regimes were used namely a control, 1 ? M, 5 ? M, 10 ? M, 25 ? M and 50 ? M (FIG. 4). APP-transfected CHO cells were treated with each of the doses of [Zn(BTSC)] for 6 hr in serum-free medium and conditioned medium was then collected and assayed for Aβ1-40 peptide by routine Aβ ELISA.
Generation of APP-transfected Chinese Hamster Ovary (CHO) APP-CHO cells were generated by expressing the 695-amino acid APP cDNA in the pIRESpuro2 expression vector (Clontech, Mountain View, Calif., USA). Cells were transfected using Lipofectamine 2000 and cultured in RPMI-1640 media supplemented with 1 mM glutamine and 10% fetal bovine serum (all from Invitrogen, Mount Waverley, Victoria, Australia). Transfected cells were selected and maintained using 7.5 μg/ml puromycin (Sigma-Aldrich).
Treatment of cells with Complexes. APP-CHO cells were passaged at a ratio of 1:5 and grown in 6 well plates for 3 days before experiments. Compounds were prepared as a 10 mM stock solution in DMSO and added to serum-free RPMI medium supplemented with puromycin. Medium was briefly mixed by aspiration prior to addition to cells. Control cultures were treated with vehicle (DMSO) alone. Cultures were incubated for 6 hr and conditioned media taken for measurement of […] levels by ELISA.
Double antibody capture enzyme-linked immunosorbent assay (ELISA) for Aβ detection. Aβ levels were determined in culture medium using the 384 well Aβ1-40 ELISA protocol. 384 well plates were coated with monoclonal antibody (mAb) G2-10 in carbonate-bicarbonate coating buffer (pH 9.6) for Aβ1-40 detection. The plates were left to incubate overnight at 4° C. with rocking. The plates were then washed three times with PBST at RT with rocking and the solution discarded after each wash. Then 100 μL of 0.5% (w/v) hydrolyzed casein in PBS (pH 7.4) was added to each well and left to incubate for 2 hr at 37° C. to prevent non-specific binding. The plates were then washed three times with PBST at RT with rocking. 20 ng of biotinylated mAb WO2 (epitope at Aβ5-8) was added to each well of the plates (10 μL/well at […]). 50 μL/well of Aβ1-40 standard peptide samples (MHRI, Melbourne, Australia), cell culture medium samples and the blanks were added. The plates were left to incubate overnight at 4° C. with rocking. The plates were washed nine times with PBST at RT with rocking. 25 μL streptavidin-labelled europium was added at a dilution of 1:1000. Plates were then washed ten times with PBST where the 9th and 10th wash was left on for 5 min before discarding. To develop the plates 80 μL of enhancement solution was added to each well and plates were read in a WALLAC Victor^2 plate reader with excitation (Ex) at 340 nm and emission (Em) at 613 nm. Aβ1-40 peptide standards and samples were assayed in triplicate. The values obtained from the triplicate wells were used to calculate the […] concentration (expressed as ng/mL) based on the standard curve generated on each plate and are given in Table 3.
APP-CHO cells were treated with 10 μM [Zn(ATSE)] with or without specific inhibitors of PI3K (LY294002), JNK (SP600125) or p38 (SB203580) (25 μM of each) for 6 hr and conditioned medium analyzed for levels of Aβ1-40 by routine ELISA.

GSK3 = experiment: Western blot for GSK3 phosphorylation and expression in APP-CHO cells; type: cell-based, Chinese Hamster; conditions: 10 μM, 6 hr
Procedure: as §1, §2

[2] = test system: APP-transfected CHO cells; experiment: Cellular zinc uptake of Zn-BTSC complexes (ICP-MS), with or without Cu2+; type: cell-based, Chinese Hamster; conditions: 6 hr
Procedure: It was known that copper can transmetallate [Zn(BTSC)] complexes. Therefore, if [Zn(BTSC)] complexes were administered to the culture medium in the presence of exogenous Cu^2+, we would expect [Cu(BTSC)] complexes to form. To examine this, cells were exposed to 10 μM [Zn(ATSE)] or [Zn(ATSP)] with or without 5-50 μM Cu^2+ for 6 hr.
Supernatant was discarded and cell pellets frozen at −70° C. until metal levels were determined by inductively-coupled plasma mass spectrometry (ICP-MS) at the Department of Pathology, University of Melbourne. […] [Zn(ATSM)] and [Zn(ATSE)] induced 8.2±0.25 and 9.8±0.9-fold increases in cellular Zn levels respectively when compared to untreated controls (FIG. 2).
To examine this, cells were exposed to 10 μM [Zn(ATSE)] or [Zn(ATSP)] with or without 5-50 μM Cu^2+ for 6 hr. Co-treatment of cells with Cu and the Zn-BTSC complexes reduced the level of Zn uptake compared to Zn-BTSC alone (FIG. 5).

CCNC1=N[N+]2=C(C)C(C)=[N+]3N=C(NCC)[S][Cu-2]23[S]1 [CuATSE]
activation of JNK (JNK): did not induce activation | activation of PI3K (Akt phosphorylation) [1]: did not induce activation

COc1cc2ncnc(Nc3cccc(Br)c3)c2cc1OC [PD153035]
CuGTSM-induced phosphorylation of JNK, GSK3 and ERK (ERK, GSK3 and JNK): decrease | effect on CuGTSM-induced activation of EGFR (EGFR): inhibited activation

Nc1nc2ccc(OC(F)(F)F)cc2s1 [Riluzole]
Increased Life Span (G93A-SOD1 mice): 10 to 15 days

Vitamin E
Increased Life Span (G93A-SOD1 mice): No effect

CC(=N\NC([S-])=Nc1ccccc1)/C(C)=N/NC([S-])=Nc1ccccc1.[Cu+2] [CuATSP]
activation of JNK (JNK): did not induce activation | activation of PI3K (Akt phosphorylation) [1]: did not induce activation

COC(=O)C[C@H](NC(=O)[C@H](C)NC(=O)[C@@H](NC(=O)OCc1ccccc1)C(C)C)C(=O)CF [zVAD-fink] (Cbz-Val-Ala-Asp(OMe)-CH2F)
Increased Life Span (G93A-SOD1 mice): 27 days

C[S+]([O-])c1ccc(-c2nc(-c3ccncc3)c(-c3ccc(F)cc3)[nH]2)cc1 (stereo not shown) [SB203580, reference compound]
effect of kinase inhibitor on the loss of Aβ by [Zn(ATSE)] (Aβ1-40; 25 μM inhibitor with 10 μM [Zn(ATSE)]): no effect

CN(CC(=O)O)C(=N)N [Creatine]
Increased Life Span (G93A-SOD1 mice): 20 days

CO/N=C(\C(=O)N[C@@H]1C(=O)N2C(C(=O)O)=C(CSc3nc(=O)c(=O)[nH]n3C)CS[C@H]12)c1csc(N)n1 [Ceftriaxone]
Increased Life Span (G93A-SOD1 mice): 10 days

CCNC1=NN=C(C)C(C)=NN=C(NCC)[S][Zn][S]1 [[Zn(ATSE)]]
GSK3 expression (GSK3): increased | phosphorylation (de-activation) of GSK3 (GSK3): induced down-stream phosphorylation | activation of JNK (JNK): induced activated | activation of PI3K (Akt phosphorylation) [1]: induced activated | fold increase in cellular zinc levels ([2]; 10 μM complex alone): 9.7±0.7 fold | fold increase in intracellular zinc ([2]; 10 μM complex in the presence of 10 μM Cu2+): 2.9±0.3 fold | fold increases in cellular Zinc levels ([2]; APP-CHO cells, 1-50 μM, vs untreated controls): 9.8±0.9 fold | effect on Aβ1-40 levels at lower dose (Aβ1-40): greater reductions | effect on Aβ1-40 levels at lower dose (Aβ1-40; listed as Zn-ATSE): inhibited

CNC(=S)NN=CC=NNC(=S)NC [GTSMH2]
effect on extracellular Aβ1-40 levels (Aβ1-40; 1-50 μM, serum-free medium): very small reduction

CC1=[N+]2N=C(Nc3ccccc3)[S][Zn]23[S]C(Nc2ccccc2)=N[N+]3=C1C [[Zn(ATSP)]]
GSK3 expression (GSK3): small increase | activation of JNK (JNK): did not induce activation | activation of PI3K (Akt phosphorylation) [1]: did not induce activation

CCNC1=NN=C2CCCCC2=NN=C(NCC)[S][Zn][S]1 [[Zn(ChexTSE)]]
effect on Aβ1-40 levels at lower dose (Aβ1-40): greater reductions | effect on Aβ1-40 levels at lower dose (Aβ1-40; listed as Zn-Chex TSE): inhibited

CCN1C=CN(CC)C1=C1C2=NC(=C(c3n(CC)cc[n+]3CC)C3=NC(=C(c4n(CC)cc[n+]4CC)c4ccc([n-]4)C(c4n(CC)cc[n+]4CC)=C4C=CC1=N4)C=C3)C=C2.[Cl-].[Cl-].[Cl-].[Cl-].[Cl-].[Mn+3] [AEOL 10150]
Increased Life Span (G93A-SOD1 mice): 20 days

Source: patent publication US11123350B2, “Metal delivery agents and therapeutic uses of the same” (THE UNIVERSITY OF MELBOURNE, priority 2006, dated 2021)
